Source: patent publication US8785608B2, “Crystalline heteroaromatic fluoroglycoside hydrates, pharmaceuticals comprising these compounds and their use” (Sanofi, priority 2009, dated 2014)

Columns and labels:
Type in all cases: physicochemical
[1] = Long term storage stability in glass vials (chemical stability); settings: for Puirity (area %) / Total increase (area %): +40° C.
Text: The following tables 2 and 3 show data for the storage stability of crystalline compound of formula I in comparison to amorphous material of formula II. Samples of the compounds of formula I and II were packed into glass vials. Chemical stability was monitored over a period up 28 days under different conditions as indicated at each table.

[2] = Water vapour sorption (DVS), hygroscopicity; settings: 80% r.h. (25° C.)
Method: The water sorption experiments were performed with a SPS11-10μ (Projekt Messtechnik). Open aluminium pans were used and the measurements were performed at 25° C. The measured data was evaluated via the software Excel (Microsoft).

[3] = Humidity-resolved XRPD in humidity chamber (phase transitions); settings: 25° C.
Method: The samples were subjected to a pre-defined humidity program lasting 48 hours in an SMS VGI-2000 chamber at a constant temperature of 25° C. XRPD patterns were collected continuously with a data collection time of between 6 and 11 min. (The amorphous sample was treated with the humidity-program reversed: first rising the humidity to 95%, then lowering it to 0% and rising to 95% again.).

[4] = open glass vials, 75% relative humidity, 7 d
[5] = open glass vials, 75% relative humidity, 14 d
[6] = open glass vials, 75% relative humidity, 28 d
[7] = open glass vials, 75% relative humidity, Initial

SMILES: CC(C)c1[nH]nc(O[C@@H]2O[C@H](CO)[C@@H](F)[C@H](O)[C@H]2O)c1Cc1ccc(CCCC(=O)NC(CO)(CO)CO)cc1 [Amorphous sample, 4-{4-[3-((2S,3R,4R,5S,6R)-5-Fluoro-3,4-dihydroxy-6-hydroxymethyl-tetrahydro-pyran-2-yloxy)-5-isopropyl-1H-pyrazol-4-ylmethyl]-phenyl}-N-(2-hydroxy-1,1-bis-hydroxymethyl-ethyl)-butyramide, reference compound]
- Puirity (area %) ([1]; closed glass vials, 7 d): 96.5 area %
- Total increase (area %) ([1]; closed glass vials, 7 d): 0.5 area %
- Puirity (area %) ([1]; closed glass vials, 14 d): 96.1 area %
- Total increase (area %) ([1]; closed glass vials, 14 d): 0.9 area %
- Puirity (area %) ([1]; closed glass vials, 28 d): 95.6 area %
- Total increase (area %) ([1]; closed glass vials, 28 d): 1.4 area %
- Puirity (area %) ([1]; closed glass vials, Initial): 97.0 area %
- Puirity (area %) [1, 4]: 96.2 area %
- Total increase (area %) [1, 4]: 0.5 area %
- Puirity (area %) [1, 5]: 95.9 area %
- Total increase (area %) [1, 5]: 1.1 area %
- Puirity (area %) [1, 6]: 95.5 area %
- Total increase (area %) [1, 6]: 1.5 area %
- Puirity (area %) [1, 7]: 97.0 area %

SMILES: CC(C)c1[nH]nc(O[C@@H]2O[C@H](CO)[C@@H](F)[C@H](O)[C@H]2O)c1Cc1ccc(CCCC(=O)NC(CO)(CO)CO)cc1 [Crystalline hydrate I]
- chemical stability during storage ([1]; 40° C. under dry conditions (closed vials) and 75% r.h): better chemical stability
- Puirity (area %) ([1]; closed glass vials, 7 d): 97.2 area %
- Total increase (area %) ([1]; closed glass vials, 7 d): 0.3 area %
- Puirity (area %) ([1]; closed glass vials, 14 d): 97.1 area %
- Total increase (area %) ([1]; closed glass vials, 14 d): 0.4 area %
- Puirity (area %) ([1]; closed glass vials, 28 d): 97.0 area %
- Total increase (area %) ([1]; closed glass vials, 28 d): 0.5 area %
- Puirity (area %) ([1]; closed glass vials, Initial): 97.5 area %
- Puirity (area %) [1, 4]: 97.3 area %
- Total increase (area %) [1, 4]: ≦0.2 area %
- Puirity (area %) [1, 5]: 97.3 area %
- Total increase (area %) [1, 5]: ≦0.2 area %
- Puirity (area %) [1, 6]: 97.3 area %
- Total increase (area %) [1, 6]: ≦0.2 area %
- Puirity (area %) [1, 7]: 97.3 area %
- hygroscopicity compared to the amorphous form [2]: less hygroscopic
- relative humidity at which starting phase B transformed to phase C ([3]; humidity lowered): about 2%
- relative humidity at which phase D transformed back into the starting phase ([3]; humidity raised): around 20 % rel. hum.
- relative humidity at which intermediate phase D formed ([3]; humidity raised again): about 10%
